The values below come from PubChem BioAssay (NCI).

Several values for one entry are separate records, joined by “and”; a condition that tells them apart may be missing. Equal entries are not always repeated.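 Cultured in 96-well plates, cells were exposed to test compound for 48 hours across five concentrations. The concentration for 50% growth inhibition is given as GI50. TGI marks complete inhibition of growth.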

What all share (experiment): growth of human tumour cells (NCI), 48 h
Experiment [1] has as its system PC-3 prostate.
Experiment [2] has as its system BT-549 breast.
In experiment [3] the test system is MDA-MB-231 breast.
In experiment [4] the test system is MDA-N.
Experiment [5] concerns M19-MEL melanoma.
For experiment [6], the system named is LXFL 529 NSCLC.
Experiment [7] relates to DMS 273 small cell lung.
Experiment [8] concerns KM20L2 colon.

On to `CC(C)Oc1ccc(C(=O)Cn2ccnc2)cc1-n1c(CN2CCN(C(=O)COc3ccc(Cl)cc3)CC2)nc2ccccc2c1=O`, for which the GI50 is 9440 nM in experiment [1], 13.5 µM in experiment [2] and 4.32 µM in experiment [3]. The results for the TGI in experiment [1], in experiment [2] and in experiment [3] were 37.2 µM, 30.9 µM and 19.7 µM, respectively.

As to `COc1ccc(C2=C(N3CCc4ccccc43)C(=O)NC2=O)cc1`, the GI50 in experiment [1] was more than 20200 nM; in experiment [2], 24.2 µM; in experiment [3], more than 22.4 µM. The TGI in experiment [1], in experiment [2] and in experiment [3] was more than 25 µM throughout.

Turning to `c1cnn2ncc(-c3ccnc(Nc4ccc5c(c4)OCCO5)n3)c2c1`, the GI50 was 95.5 nM in experiment [1], 0.0588 µM in experiment [2] and 0.0914 µM in experiment [3]. Further, the TGI in experiment [1] was more than 25 µM; in experiment [2] it was 0.2 µM; in experiment [3], more than 25 µM.

`CCN(CC)c1ccc(/C=C/C2=[N+](C)c3ccccc3C2(C)C)c(C)c1`: the results for the GI50 in experiment [1], in experiment [2] and in experiment [3] were 22.5 nM, less than 0.0309 µM and 0.101 µM, respectively. Further, the TGI was found to be 1.67 µM in experiment [1], 1.24 µM in experiment [2] and 2.27 µM in experiment [3].

For the compound `O=C1c2ccccc2-c2c1c1ccccc1c(=O)n2CCNCCn1c2c(c3ccccc3c1=O)C(=O)c1ccccc1-2`, in experiment [2], the GI50 was more than 25 µM and the TGI was more than 25 µM. For the same compound, in experiment [3], the GI50 was 18.2 µM and the TGI was more than 25 µM.

Turning to `Cc1cc(C)n(C2=NS(=O)(=O)c3ccccc3N2C)n1`, the TGI in experiment [4], in experiment [1], in experiment [2] and in experiment [3] was more than 100 µM in each case.

As for `c1ccc2[nH]c(CNc3ccc(C4C[Se]N=N4)cc3)nc2c1` (centres undefined), the TGI in experiment [5] was more than 100 µM; in experiment [6] it was 67.7 µM; in experiment [7], more than 100 µM.

For the compound `O=C(NCCN1CCNCC1)c1ccc(Nc2nc3ccccc3c3occc23)cc1`, the GI50 in experiment [1] is 11100 nM; in experiment [2], 2.72 µM; in experiment [3], 11.8 µM. The TGI is 29.8 µM in experiment [1], 18.2 µM in experiment [2] and 25.8 µM in experiment [3].

As for `Cc1cccc(N=Nc2ccc(N=Nc3c(O)ccc4ccccc34)cc2C)c1`, the TGI in experiment [1], in experiment [2] and in experiment [3] was more than 100 µM in each case.

Turning to `OCc1ccc(N2CCOCC2)cc1Cl`, the figures for the GI50 in experiment [1], in experiment [2] and in experiment [3] were more than 100000 nM, more than 100 µM and more than 100 µM, respectively. Further, the TGI in experiment [1], in experiment [2] and in experiment [3] was more than 100 µM in each case.

Take `COc1ccc(F)c(F)c1C(=O)c1cnc(NC2CCN(S(C)(=O)=O)CC2)nc1N`: the GI50 in experiment [1] is 385 nM and 411 nM; in experiment [2], 1.52 µM and 1.02 µM; in experiment [3] it was 0.805 µM and 0.262 µM. Besides, the TGI in experiment [1] is 5.44 µM and 5.92 µM; in experiment [2] it was 5.86 µM and 5.52 µM.

For `CC1c2ccccc2N=C2SC(=S)N3CCN=C3N21` (centres undefined), the GI50 was more than 100000 nM in experiment [1], more than 100 µM in experiment [2] and more than 100 µM in experiment [3]. Also, the TGI in experiment [1], in experiment [2] and in experiment [3] was more than 100 µM each time.

For the compound `N.N.N.N.N.O=S(=O)([O-])S(=O)(=O)[O-].[Co+3]`, the GI50 in experiment [8], in experiment [6] and in experiment [7] was more than 100 µM in each case. The TGI in experiment [8], in experiment [6] and in experiment [7] was more than 100 µM each time.

Take `O=[N+]([O-])c1ccc(-c2cc3c(Nc4ccc(Cl)c(C(F)(F)F)c4)ncnc3s2)cc1`: the GI50 in experiment [1] was 802 nM; in experiment [2], 2.91 µM; in experiment [3], 0.382 µM. Further, the TGI in experiment [1] was more than 100 µM; in experiment [2] it was more than 100 µM; in experiment [3], 1.63 µM.

Take `[2H]c1nc(=Nc2cc(NC(=O)C=C)c(N(C)CCN(C)C)cc2OC)[nH]c(-c2cn(C([2H])([2H])[2H])c3ccccc23)c1[2H]`: the GI50 in experiment [1] was 1610 nM; in experiment [2], 1.52 µM; in experiment [3], 1.27 µM. Further, the TGI in experiment [1] was determined as 3.5 µM; in experiment [2] it was 3.25 µM; in experiment [3] it was 2.81 µM.

In the case of `Cc1ccc2oc(=O)c(-c3ccccc3)nc2c1`, the TGI in experiment [5] amounted to 64.8 µM; in experiment [7], 37.6 µM.

`CC(C)[O-].CC(C)[O-].O=c1cccccc1[O-].O=c1cccccc1[O-].[Ti+4]`: the GI50 was 46.1 µM in experiment [8] and 31 µM in experiment [6]. Further, the TGI in experiment [8] and in experiment [6] was more than 100 µM throughout.

Take `O=C(c1cccs1)C1NO[N+]([O-])=C1c1cccs1` (centres undefined): the GI50 in experiment [1] is 8430 nM; in experiment [2], 9.41 µM; in experiment [3], 11.8 µM. In addition, the TGI in experiment [1] was 22.3 µM; in experiment [2], 21.2 µM; in experiment [3], 25 µM.

In the case of `CCn1c(-c2nonc2N)nc2ccncc21`, the GI50 is more than 25000 nM in experiment [1], more than 25 µM in experiment [2] and more than 25 µM in experiment [3]. The TGI in experiment [1], in experiment [2] and in experiment [3] was more than 25 µM each time.

In the case of `COc1cccc(COc2cc(-n3cnc4ccccc43)sc2C(N)=O)c1`, the GI50 in experiment [1] is more than 25000 nM; in experiment [2], more than 21 µM; in experiment [3] it was 14.8 µM. The TGI in experiment [1], in experiment [2] and in experiment [3] was more than 25 µM each time.

As for `O=C1/C(=C/c2ccc([N+](=O)[O-])cc2)COc2ccc(O)cc21`, the GI50 is 2580 nM in experiment [1], 18.5 µM in experiment [2] and 4.77 µM in experiment [3]. Besides, the values for the TGI in experiment [1], in experiment [2] and in experiment [3] were 7.27 µM, 50.4 µM and 36.9 µM, respectively.
